Reference: US12054466B2, “Compounds for the treatment of clostridium difficile infection” (University of Notre Dame du Lac, priority 2016, dated 2024)
Converted amounts (≈) assume the structure as drawn. Read-outs that look alike come from different tables or passages of the source.

Key:
Type in all cases: cell-based
C. difficile ATCC43598 = assay: MIC, broth microdilution; details: Clostridioides difficile, C. difficile ATCC43598
C. difficile ATCC43255 = assay: MIC, broth microdilution; details: Clostridioides difficile, C. difficile ATCC43255
C. difficile BAA-1870 = assay: MIC, broth microdilution; details: Clostridioides difficile, BAA1870, C. difficile BAA-1870 (NAP1, ribotype 27)
C. difficile BAA-1804 = assay: MIC, broth microdilution; details: Clostridioides difficile, BAA1804, C. difficile BAA-1804
C. difficile BAA-1803 = assay: MIC, broth microdilution; details: Clostridioides difficile, BAA1803, C. difficile BAA-1803 (NAP1, ribotype 027)
C. difficile BAA-1801 = assay: MIC, broth microdilution; details: Clostridioides difficile, BAA1801, C. difficile BAA-1801 (nontoxigenic)
C. difficile BAA-1812 = assay: MIC, broth microdilution; details: Clostridioides difficile, BAA1812, C. difficile BAA-1812
C. difficile BAA-1814 = assay: MIC, broth microdilution; details: Clostridioides difficile, BAA1814, C. difficile BAA-1814
C. difficile NR49310 = assay: MIC, broth microdilution; details: Clostridioides difficile, C. difficile NR49310 (NAP7, ribotype 078)
C. difficile NR49294 = assay: MIC, broth microdilution; details: Clostridioides difficile, C. difficile NR49294 (NAP4, ribotype 014)
C. difficile NR49305 = assay: MIC, broth microdilution; details: Clostridioides difficile, C. difficile NR49305 (NAP6, ribotype 002)
C. difficile NR49318 = assay: MIC, broth microdilution; details: Clostridioides difficile, C. difficile NR49318 (NAP11, ribotype 106)
C. difficile NR49292 = assay: MIC, broth microdilution; details: Clostridioides difficile, C. difficile NR49292 (NAP2, ribotype 001_072)
C. difficile NR49302 = assay: MIC, broth microdilution; details: Clostridioides difficile, C. difficile NR49302 (NAP4, ribotype 020)
[1] = test system: Bacteroides fragilis HM-709; assay: MIC against common gut bacteria; details: HM709; Bacteroides fragilis HM-709; read-out: MIC
Bacteroides fragilis = assay: MIC against common gut bacteria; details: read-out: MIC
Bacteroides ovatus = assay: MIC against common gut bacteria; details: read-out: MIC
Bacteroides vulgatus = assay: MIC against common gut bacteria; details: Phocaeicola vulgatus; Bacteroides vulgatus; read-out: MIC
Bacteroides eggerthii = assay: MIC against common gut bacteria; details: read-out: MIC
Bacteroides caccae = assay: MIC against common gut bacteria; details: read-out: MIC
[2] = test system: Bifidobacterium longum HM-846; assay: MIC against common gut bacteria; details: HM846; Bifidobacterium longum HM-846; read-out: MIC
[3] = test system: Corynebacterium sp. HM-784; assay: MIC against common gut bacteria; details: SP.HM784; Corynebacterium sp. HM-784; incubated aerobically; read-out: MIC
[4] = test system: Fusobacterium nucleatum HM-992; assay: MIC against common gut bacteria; details: HM992; Fusobacterium nucleatum HM-992; read-out: MIC
[5] = test system: Lactobacillus reuteri HM-102; assay: MIC against common gut bacteria
[6] = test system: Lactobacillus gasseri HM-644; assay: MIC against common gut bacteria
Veillonella sp. HM-49 = assay: MIC against common gut bacteria
Eubacterium sp. HM-178 = assay: MIC against common gut bacteria; details: SP.HM178

FC(F)(F)c1ccc(Oc2ccc(-c3noc(-c4ccc5[nH]ccc5c4)n3)cc2)cc1 [Compound 1]
MIC (C. difficile ATCC43598; 24 h, read-out: MIC at 24 h): 1 µg/mL (≈ 2.37 µM)
MIC (C. difficile ATCC43598; 48 h, read-out: MIC at 48 h): 1 µg/mL (≈ 2.37 µM)
MIC (C. difficile ATCC43255; 24 h, read-out: MIC at 24 h): 2 µg/mL (≈ 4.75 µM)
MIC (C. difficile ATCC43255; 48 h, read-out: MIC at 48 h): 2 µg/mL (≈ 4.75 µM)
MIC (C. difficile BAA-1870; 24 h, read-out: MIC at 24 h): 2 µg/mL (≈ 4.75 µM)
MIC (C. difficile BAA-1870; 48 h, read-out: MIC at 48 h): 4 µg/mL (≈ 9.49 µM)
MIC (C. difficile BAA-1804; 24 h, read-out: MIC at 24 h): 2 µg/mL (≈ 4.75 µM)
MIC (C. difficile BAA-1804; 48 h, read-out: MIC at 48 h): 2 µg/mL (≈ 4.75 µM)
MIC (C. difficile BAA-1803; 24 h, read-out: MIC at 24 h): 1 µg/mL (≈ 2.37 µM)
MIC (C. difficile BAA-1803; 48 h, read-out: MIC at 48 h): 2 µg/mL (≈ 4.75 µM)
MIC (C. difficile BAA-1801; 24 h, read-out: MIC at 24 h): 2 µg/mL (≈ 4.75 µM)
MIC (C. difficile BAA-1801; 48 h, read-out: MIC at 48 h): 4 µg/mL (≈ 9.49 µM)
MIC (C. difficile BAA-1812; 24 h, read-out: MIC at 24 h): 2 µg/mL (≈ 4.75 µM)
MIC (C. difficile BAA-1812; 48 h, read-out: MIC at 48 h): 2 µg/mL (≈ 4.75 µM)
MIC (C. difficile BAA-1814; 24 h, read-out: MIC at 24 h): 2 µg/mL (≈ 4.75 µM)
MIC (C. difficile BAA-1814; 48 h, read-out: MIC at 48 h): 4 µg/mL (≈ 9.49 µM)
MIC (C. difficile NR49310; 24 h, read-out: MIC at 24 h): 2 µg/mL (≈ 4.75 µM)
MIC (C. difficile NR49310; 48 h, read-out: MIC at 48 h): 2 µg/mL (≈ 4.75 µM)
MIC (C. difficile NR49294; 24 h, read-out: MIC at 24 h): 1 µg/mL (≈ 2.37 µM)
MIC (C. difficile NR49294; 48 h, read-out: MIC at 48 h): 1 µg/mL (≈ 2.37 µM)
MIC (C. difficile NR49305; 24 h, read-out: MIC at 24 h): 2 µg/mL (≈ 4.75 µM)
MIC (C. difficile NR49305; 48 h, read-out: MIC at 48 h): 4 µg/mL (≈ 9.49 µM)
MIC (C. difficile NR49318; 24 h, read-out: MIC at 24 h): 2 µg/mL (≈ 4.75 µM)
MIC (C. difficile NR49318; 48 h, read-out: MIC at 48 h): 2 µg/mL (≈ 4.75 µM)
MIC (C. difficile NR49292; 24 h, read-out: MIC at 24 h): 1 µg/mL (≈ 2.37 µM)
MIC (C. difficile NR49292; 48 h, read-out: MIC at 48 h): 2 µg/mL (≈ 4.75 µM)
MIC (C. difficile NR49302; 24 h, read-out: MIC at 24 h): 1 µg/mL (≈ 2.37 µM)
MIC (C. difficile NR49302; 48 h, read-out: MIC at 48 h): 2 µg/mL (≈ 4.75 µM)
MIC [1]: 2 µg/mL (≈ 4.75 µM)
MIC (Bacteroides fragilis): 4 µg/mL (≈ 9.49 µM)
MIC (Bacteroides ovatus): 4 µg/mL (≈ 9.49 µM)
MIC (Bacteroides vulgatus): 2 µg/mL (≈ 4.75 µM)
MIC (Bacteroides eggerthii): 2 µg/mL (≈ 4.75 µM)
MIC (Bacteroides caccae): 4 µg/mL (≈ 9.49 µM)
MIC [2]: 0.2 µg/mL (≈ 0.475 µM)
MIC [3]: 2 µg/mL (≈ 4.75 µM)
MIC [4]: 1 µg/mL (≈ 2.37 µM)
MIC ([5]; Limosilactobacillus reuteri, HM102, Lactobacillus reuteri HM-102, read-out: MIC): > 12 µg/mL
Activity against Lactobacillus reuteri ([5]; in words): not active
MIC ([6]; HM644, Lactobacillus gasseri HM-644, read-out: MIC): > 12 µg/mL
Activity against Lactobacillus gasseri ([6]; in words): not active
MIC (Veillonella sp. HM-49; SP.HM49, Veillonella sp. HM-49, read-out: MIC): > 12 µg/mL
Activity against Veillonella sp. (Veillonella sp. HM-49; in words): not active
MIC (Eubacterium sp. HM-178): 2 µg/mL (≈ 4.75 µM)
